Measurements taken from PubChem BioAssay AID1117339.
Activity calls are given as the source filed them. How the calls were made is not given here.

Tested on: HCT116 viability, CellTiter-Glo, GSK3B-pretreated
Assay: HCT116 cell viability decrease, GSK3B pretreatment – CellTiter-Glo, IC50, dose response (AID 1117339)

OCCN1CCN(CC/C=C2/c3ccccc3Sc3ccc(C(F)(F)F)cc32)CC1
IC50: 2890 nM

CCCCCCCCCCCCCC[N+](C)(C)C
IC50: 754 nM

Cc1ccc([N+](=O)[O-])[c]2c1[O][Hg]2
IC50: 2220 nM (inactive)
